System: axons of E15 DRG sensory neurons
Experiment: Axonal degeneration assay in compartmented chamber cultures (degeneration index)
Format: cell-based, rat
Procedure: Cell culture. Compartmented chamber (Campenot) cultures were prepared as described (see, e.g., Fenstermacher et al., Springer Protocols: Neuromethods, 103:105-124 (2015)), with modifications. Briefly, DRGs from embryonic day 15 (E15) rats of either sex were dissected and trypsinized. DRGs (1.2×10^5 cells) were plated in the center compartment of a Teflon divider (Camp10, Tyler Research; Campenot, 1982) affixed to a p35 culture dish coated with growth factor reduced Matrigel basement membrane (BD Biosciences) 1:45 in DMEM. Cultures were maintained in media consisting of Neurobasal (Invitrogen) with 2% B27 supplement (Invitrogen), 1% penicillin-streptomycin, 1% GlutaMAX (Life Technologies), 0.08% glucose, and 0.3 μM cytosine arabinoside (AraC) at 37° C., 7.5% CO2; BDNF+NGF (PeproTech) were added to the cell body compartment at a concentration of 10 ng/ml and to the axon compartment at a concentration of 100 ng/ml for 2d. On day 3, media was replaced and the AraC was omitted. On day 5, neurotrophins were removed from the cell body compartment and reduced to 1 ng/ml in the axon compartments for 3-5 days. […] For calpain inhibition experiments, 20 μM calpain inhibitor III (VWR) and paclitaxel were added simultaneously to distal axon compartment.
Axonal degeneration assay. Compartmented chamber cultures were fixed at room temperature with 4% PFA diluted 1:2 in media for 10 min, then undiluted 4% PFA for an additional 20 min. Cultures were permeabilized with 0.1% TritonX-100 for 10 min, blocked in 3% BSA and 0.1% Triton X-100 for 1 hour at room temperature, and incubated with mouse anti-Tuj1 (1:400; clone Tuj1; Covance) overnight at 4° C. Cultures were then incubated with goat anti-mouse AlexaFluor (1:1000; Invitrogen) for 1 hour at room temperature and counterstained with DAPI. Images of distal axon tips were obtained using a 40× air objective, and axonal degeneration was quantified as a degeneration index, as previously described (Cosker et al., Neuroscience, 33:5195-5207 (2013)). Apoptosis analysis was carried out on the same cultures by taking images in the cell body compartment and counting total and condensed nuclei in NIH ImageJ software by an observer blind to condition.
Protein and peptide introduction. Recombinant His-tagged Bclw, Bcl2, and BclxL proteins (R&D Systems) or control β-galactosidase protein were introduced into cell bodies or axons of compartmented chamber cultures as described (e.g., Cosker et al., Nature Neuroscience, 19:690-696 (2016)). Briefly, 1 μg/μ1 protein was introduced into cultures using 2 μl Chariot reagent (Active Motif). To confirm expression of His-tagged proteins, cell bodies and axons were lysed in nonionic detergent, and protein lysates were separated as above and blotted with the following antibodies: anti-His (1:1000; Novagen) and anti-pan-actin (1:1000; Cell Signaling Technology). FITC-tagged SAHB peptides (BH4-Bclw, BH4-Bcl2, and BH4-BclxL; stock solutions 1 mM in DMSO) were introduced into cell bodies or axons using 350 ng peptide and 2 μl of Chariot reagent diluted 1:10 in water. Control was no peptide with 2 μl of 1:10 diluted Chariot. To confirm peptide expression, cultures were processed for axonal degeneration assay as above, and FITC immunofluorescence was examined with a 40× air objective. Paclitaxel was added to cultures 1 hour after protein or peptide transfection.

[1] = His-tagged recombinant protein transfected into axons
[2] = protein introduced into cell bodies instead of axons

**Q.** “Bcl2: Recombinant His-tagged Bcl2 protein (R&D Systems) introduced by protein transfection” was tested. Which “effect on paclitaxel-induced axon degeneration” value (shortened to “effect”) [1] did it give?
**A.** neither BclxL nor Bcl2 prevented degeneration

**Q.** And the “effect” value [2]?
**A.** failed to inhibit paclitaxel-induced degeneration

**Q.** “BclxL: Recombinant His-tagged BclxL protein (R&D Systems) introduced by protein transfection” was tested. Which “effect” value [1] did it give?
**A.** neither BclxL nor Bcl2 prevented degeneration

**Q.** What about the “effect” value [2] of the same molecule?
**A.** failed to inhibit paclitaxel-induced degeneration

**Q.** Which “effect” value (20 μM to axons, added with paclitaxel) does the source give for calpain inhibitor III here?
**A.** prevented paclitaxel-induced degeneration

B1: Bclw: Recombinant His-tagged Bclw protein (R&D Systems) introduced by protein transfection (protein, UniProt Q92843 2-193, looked up)
Bcl-2-like protein 2: ATPASAPDTRALVADFVGYKLRQKGYVCGAGPGEGPAADPLHQAMRAAGDEFETRFRRTFSDLAAQLHVTPGSAQQRFTQVSDELFQGGPNWGRLVAFFVFGAALCAESVNKEMEPLVGQVQEWMVAYLETQLADWIHSSGGWAEFTALYGDGALEEARRLREGNWASVRTVLTGAVALGALVTVGAFFASK
modifications: His tag
notes: Recombinant His-tagged Bclw protein (R&D Systems) introduced by protein transfection
**Q.** Which results are given for B1?
**A.** effect on paclitaxel-induced axon degeneration [1]: completely prevented paclitaxel-induced axon degeneration; effect on paclitaxel-induced axon degeneration [2]: failed to inhibit paclitaxel-induced degeneration

Reference: US12441775B2, “BCL-W polypeptides and mimetics for treating or preventing chemotherapy-induced peripheral neuropathy and hearing loss” (Dana-Farber Cancer Institute, Inc., priority 2016, dated 2025)
